Data set [1] relates to A375 cells (parental). Briefly: Dose-response curves and IC50, PrestoBlue cell viability, 72 h. In kind it is cell-based, human. The following applies: read-out: Half-maximal inhibitory concentration value (IC50), Mean.
Data set [2] has as its system A375-XP cells (Vemurafenib-resistant). Described as above. It is filed as cell-based, human. The following applies: n.e. = did not suppress growth below 50% in the tested concentration range; for pIC50: read-out: Half-maximal inhibitory concentration value (IC50), Mean.
The subject of data set [3] is A375-GP cells (Dabrafenib-resistant). The description is as above. The settings on record: n.e. = did not suppress growth below 50% in the tested concentration range; for pIC50: read-out: Half-maximal inhibitory concentration value (IC50), Mean. In kind it is cell-based, human.
For data set [4], the system named is NHDF (normal human dermal fibroblasts). Nature of the data set: Dose-response curves and IC50 in non-cancer cells, cell viability, 72 h. The settings on record: for effect on healthy cells, cell viability (in words): fibroblasts (NHDF). As to the method:
(§1) The IC50 values (nM) were calculated as indicated in Methods.

Data set [5] concerns NHEM (normal human epidermal melanocytes). Described as above. The settings on record: for effect on healthy cells, cell viability (in words): melanocytes (NHEM). On the procedure:
as §1

The next data set concerns A375 cells. Briefly: Synergy determination with the Chou-Talalay method (CompuSyn), cell viability 72 h. It is filed as cell-based, human. The settings on record: 72 h cell viability, Chou-Talalay / Synergyfinder.
The test system of the next data set is PARP cleavage. Briefly: Western blot, PARP cleavage in A375 cells. In kind it is cell-based, human. The following applies: A375, A375-XP, A375-GP; 24 h treatment. On the technique in general: In western blotting, separated proteins are transferred to a membrane and probed.
In data set [6] the test system is A375 cells (parental sensitive) tumors. Nature of the data set: In vivo assay, subcutaneous melanoma tumors in NSG mice. More on the design: species or system NOD scid gamma (NSG) mice. The settings on record: NSG mice with A375 or A375-XP tumors, 8 days of daily treatment. As to the method:
NOD scid gamma (NSG) mice were bred in-house and experiments were performed according to all applicable laws and regulations, after receiving approval by the institution’s animal experimentation ethics committee and the veterinarian service of the Ministry of Agriculture (Permit Number: 18-MDM-01). Single parental sensitive A375 cells (0.5 × 10^6 cells) and Vemurafenib-resistant A375-XP cells (2 × 10^6 cells) were resuspended in 100 μL of 1:1 mixed serum-free medium and matrigel (BD Biosciences) and injected subcutaneously in 6–8 week-old mice. […] Control mice received the respective vehicle by oral gavage and intraperitoneal injection. […] Statistical analysis was done using a two-way ANOVA followed by post-hoc Tukey’s multiple comparison tests.

Data set [7] has as its system IGR37 cells (parental). Nature of the data set: Dose-response curves and IC50, PrestoBlue cell viability, 72 h. The settings on record: Homo sapiens, IGR-37, 72 h, read-out: Half-maximal inhibitory concentration (IC50).
Experimental: (§4) All inhibitors used in this study were purchased from Selleck Chemicals (Houston, USA). They were dissolved in DMSO to a stock concentration of 10 mM according to the manufacturer’s instructions and stored at − 80 °C. […] Cell viability was measured with the PrestoBlue Cell Viability Reagent (ThermoFisher Scientific) on a CLARIOstar Monochromator microplate reader (BMG Labtech). Using the GraphPad Prism v5.04 software, the half-maximal inhibitor concentration values (IC50) were determined from the curve using the nonlinear log (inhibitor) vs response-variable slope (four parameters) equation. […] The IC50’s were determined for 3 biological replicates and are listed with their standard deviations.
(§5) Values represent the mean of at least three biological replicates; one representative curve of at least 3 biological replicates is depicted. _XP: cells resistant to Vemurafenib (red), _GP: cells resistant to Dabrafenib (green).
For data set [8], the system named is IGR37-XP cells (Vemurafenib-resistant). Described as above. The following applies: Homo sapiens, 72 h, read-out: Half-maximal inhibitory concentration (IC50).
Experimental: as §4, §5
Data set [9] has as its system IGR37-GP cells (Dabrafenib-resistant). The description is as above. The settings on record: Homo sapiens, 72 h, read-out: Half-maximal inhibitory concentration (IC50).
For data set [10], the system named is 501Mel cells (parental). Described as above. The following applies: Homo sapiens, 72 h, read-out: Half-maximal inhibitory concentration (IC50).
Experimental: as §4, §5
The subject of data set [11] is 501Mel-XP cells (Vemurafenib-resistant). Described as above. The following applies: Homo sapiens, 72 h, read-out: Half-maximal inhibitory concentration (IC50).
Experimental: as §4, §5
The subject of data set [12] is 501Mel-GP cells (Dabrafenib-resistant). The data set is described as above. The following applies: Homo sapiens, 72 h, read-out: Half-maximal inhibitory concentration (IC50).
Experimental: as §4
The test system of data set [13] is 501Mel cells (parental). Briefly: Kinase inhibitor library screening, PrestoBlue cell viability, 1 or 10 μM, 72 h. The settings on record: 501Mel Parental, 72 h. In outline:
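Sensitive parental cells and their resistant derivatives were exposed to library compounds for 72 h. Values represent viability as a percentage of untreated cells.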

Data set [14] concerns 501Mel-GP cells (Dabrafenib-resistant). Described as above. The following applies: 501Mel GP, 72 h.
Data set [15] deals with 501Mel-XP cells (Vemurafenib-resistant). The description is as above. The settings on record: 501Mel XP, 72 h.
In data set [16] the test system is A375 cells (parental). The description is as above. The settings on record: A375 Parental, 72 h.
The test system of data set [17] is A375-GP cells (Dabrafenib-resistant). Described as above. The following applies: A375 GP, 72 h.
Data set [18] deals with A375-XP cells (Vemurafenib-resistant). The description is as above. The settings on record: A375 XP, 72 h.
Data set [19] concerns IGR37 cells (parental). Described as above. The following applies: IGR37 Parental, 72 h.
Data set [20] deals with IGR37-GP cells (Dabrafenib-resistant). The data set is described as above. The following applies: IGR37 GP, 72 h.
Data set [21] relates to IGR37-XP cells (Vemurafenib-resistant). The description is as above. The settings on record: IGR37 XP, 72 h.
Data set [22] relates to A375 parental cells expressing iRFP. Briefly: Long-term inhibitor treatment, iRFP fluorescence proliferation monitoring. It is filed as cell-based, human. As to the method: A375 parental and BRAFi-resistant cells, virally transduced with the near-infrared fluorescent protein (iRFP) were seeded at a density of 2500 cells/well in a 24-well plate (Greiner) in at least technical triplicates. Inhibitors, single or in combination, were added at the indicated amounts and replenished every 72 h for a duration of 76 days. To assess whether any remaining cells have become resistant to the treatment and would re-emerge, the drugs were removed and the cells underwent “drug holidays” for an additional 21 days. During the long-term treatment, cell proliferation was monitored bi-weekly on a LI-COR Odyssey Infrared Imaging System (LI-COR Biosciences). Fluorescence intensity was quantified with the Image Studio™ Lite software (LI-COR Biosciences).

The next data set deals with P-Akt levels. Briefly: Western blot, phospho-Akt. It is filed as cell-based, human. The settings on record: A375 cells, 3 h treatment. As to the method: (§2) Cells were seeded at a density of 10^5 cells/well in 24-well plates (Greiner). 24 h post seeding, cells were treated with inhibitors at indicated amounts for 3 h and/or 24 h. Western blot analysis was performed as described before. The following primary antibodies were used: anti-phospho-CHK1 (Ser317) (Cell Signalling Technology, 1:1000), anti-CHK1 (Cell Signalling Technology, 1:1000), anti-phospho-cdc2 (Tyr15) (Cell Signalling Technology, 1:1000), anti-cdc2 (Cell Signalling Technology, 1:1000), anti-PARP (Cell Signalling Technology, 1:1000), anti-cleaved-PARP (Cell Signalling Technology, 1:1000), anti-phospho-Erk ([…]) (Cell Signalling Technology, 1:2000), anti-Erk1/2 (Santa Cruz, Erk1 = 1:1000, Erk2 = 1:2000), anti-phospho-Akt (Ser473) (Cell Signalling Technology, 1:1500), anti-Akt1/2 (Santa Cruz, 1:1000), anti-Vinculin (Abcam, 1:1000) and anti-Tubulin (Santa Cruz, 1:5000). HRP-labeled secondary antibodies were purchased from Cell Signaling Technology (Boston, MA).
(§3) Supplementary file 13046_2019_1038_MOESM6_ESM.pdf: Additional file 6: Figure S4. Western blot analysis for selected drug treatments and apoptosis assays in healthy and melanoma cells. […] Cells were treated for 3 h with indicated concentrations of inhibitors. […] P-cdc2 (CDK1), cdc2 (CDK1), p-Chk1 and Chk1 were detected after 3 h drug treatment, while PARP cleavage was detected after 24 h treatment. […]

The next data set deals with Erk phosphorylation. Briefly: Western blot, phospho-Erk. In kind it is cell-based, human. The settings on record: A375 cells, 3 h treatment. On the procedure: as §2, §3
The mark [23] stands for this setting: Homo sapiens, A-375, n.e. = did not suppress growth below 50% in the tested concentration range.
The mark [24] stands for this setting: n.e. = did not suppress growth below 50% in the tested concentration range.

pIC50: −log10 of the molar value. Read-outs that look alike come from different tables or passages of the source.

Experimental for PARP cleavage: Cells were seeded at a density of 10^5 cells/well in 24-well plates (Greiner). 24 h post seeding, cells were treated with inhibitors at indicated amounts for 3 h and/or 24 h. […] The following primary antibodies were used: anti-phospho-CHK1 (Ser317) (Cell Signalling Technology, 1:1000), anti-CHK1 (Cell Signalling Technology, 1:1000), anti-phospho-cdc2 (Tyr15) (Cell Signalling Technology, 1:1000), anti-cdc2 (Cell Signalling Technology, 1:1000), anti-PARP (Cell Signalling Technology, 1:1000), anti-cleaved-PARP (Cell Signalling Technology, 1:1000), anti-phospho-Erk (Tyr202/Tyr204) (Cell Signalling Technology, 1:2000), anti-Erk1/2 (Santa Cruz, Erk1 = 1:1000, Erk2 = 1:2000), anti-phospho-Akt (Ser473) (Cell Signalling Technology, 1:1500), anti-Akt1/2 (Santa Cruz, 1:1000), anti-Vinculin (Abcam, 1:1000) and anti-Tubulin (Santa Cruz, 1:5000). HRP-labeled secondary antibodies were purchased from Cell Signaling Technology (Boston, MA).

`NC(=O)Nc1cc(-c2cccc(F)c2)sc1C(=O)N[C@H]1CCCNC1` [AZD7762]: the pIC50 in the data set with A375 cells (parental) [1] (setting [23]) was 6.51; in data set [2] (Homo sapiens), 6.44; in [3] (Homo sapiens), 6.52; in data set [4] (Homo sapiens, NHDF, read-out: Half-maximal inhibitory concentration (IC50), NHDF Mean), 6.27; in data set [5] (Homo sapiens, Melanocyte, read-out: Half-maximal inhibitory concentration (IC50), NHEM Mean), 6.45; in the data set on IGR37 cells (parental) [7], 7.19. Moreover, the pIC50 is 7.24 in [8]; 7.15 in [9]; 6.51 in the data set with 501Mel cells (parental) [10]; 6.73 in data set [11]; 6.37 in data set [12]. For the same compound, the “effect on healthy cells, cell viability (in words)” value in data set [4] and in data set [5] was “very modest effects” each time. Moreover, the “synergistic effects with the BRAF inhibitors Vemurafenib and/or Dabrafenib (in words)” value in the data set with A375 cells is given as “clear synergistic effects”. The “Cleavage of PARP (in words)” value in the data set on PARP cleavage is “induced”. In addition, in [6], the “body weight and side effects during treatment (in words)” value is given as “did not lose weight”.
For `O=c1[nH]c2ccc(Cl)cc2c(N[C@@H]2CN3CCC2CC3)c1-c1nc2ccccc2[nH]1` [CHIR-124, reference compound], the “cell viability (kinase inhibitor library screening)” value in the data set on 501Mel cells (parental) [13] (1μΜ) is listed as 47.8%; in the data set on 501Mel cells (parental) [13] (10μΜ), 0.9%; in data set [14] (1μΜ), 40.5%; in data set [14] (10μΜ), 0.146%; in data set [15] (1μΜ), 26.0%; in data set [15] (10μΜ), 0.156%. Also, the “cell viability (kinase inhibitor library screening)” value in the data set with A375 cells (parental) [16] (10μΜ) turned out to be 2.4%; in the data set on A375 cells (parental) [16] (1μΜ), 23.5%; in data set [17] (1μΜ) it was 18.2%; in [17] (10μΜ), 1.5%; in data set [18] (1μΜ), 40.8%; in [18] (10μΜ) it was 1.5%. Also, the “cell viability (kinase inhibitor library screening)” value in the data set with IGR37 cells (parental) [19] (1μΜ) is given as 57.6%; in the data set on IGR37 cells (parental) [19] (10μΜ) it was 1.0%; in data set [20] (1μΜ), 91.0%; in data set [20] (10μΜ), 2.3%; in [21] (1μΜ), 63.5%; in data set [21] (10μΜ), 1.6%. Moreover, the pIC50 with A375 cells (parental) [1] (setting [24]) is 6.63; in data set [2], 6.49; in data set [3] it was 6.56. In the data set with A375 cells, the “synergistic effects with the BRAF inhibitors Vemurafenib and/or Dabrafenib (in words)” value is “synergistic effects only with Dabrafenib”. Besides, the “long-term cell growth under drug until day 76 (in words)” value in data set [22] (150 nM, even with Dabrafenib (data not shown)) is recorded as “not sufficient to prevent cells to grow back”; in data set [22] (300 nM single treatment), “killed most of the cells”.
In the case of `CNC(=O)c1ccccc1Nc1nc(Nc2ccc(N3CCOCC3)cc2OC)ncc1Cl` [TAE226], the pIC50 with A375 cells (parental) [1] (setting [24]) was 6.31; in data set [2] it was 6.75; in data set [3] it was 6.52. Further, the “synergistic effects with the BRAF inhibitors Vemurafenib and/or Dabrafenib (in words)” value with A375 cells is “Vemurafenib showed synergism”. Besides, in the data set on P-Akt levels, the “P-Akt levels (in words)” value is recorded as “blocking P-Akt levels”.
Consider `CCCS(=O)(=O)Nc1ccc(F)c(C(=O)c2c[nH]c3ncc(-c4ccc(Cl)cc4)cc23)c1F` [Vemurafenib], for which, in the data set with A375 cells (parental) [1] (setting [23]), the pIC50 is 6.87. The “Half-maximal inhibitory concentration value (IC50), Mean” value in data set [2] and in data set [3] was “n.e” throughout. The “effect on healthy cells, cell viability (in words)” value in [4] and in data set [5] was “did not have any effect” each time. In the data set with Erk phosphorylation, the “Erk phosphorylation (in words)” value was “inhibition of Erk phosphorylation by Vemurafenib was confirmed”.

These data come from PMC6364417, “Kinase inhibitor library screening identifies synergistic drug combinations effective in sensitive and resistant melanoma cells” (Journal of Experimental & Clinical Cancer Research : CR, 2019).
